Patent US12042476B2, “Methods for the treatment of lysosomal storage diseases” (McMaster University, priority 2022, dated 2024)
Values joined by “and” are separate entries in the source; they are usually repeats but may differ in a detail not shown here. Equal entries are not always repeated. “Also recorded” adds a separate entry of the source.

Columns and labels:
Type in all cases: in vivo, mouse
[1] = Body mass of hexb−/− mice; settings: hexb−/− mice with 4-PBA compared to wildtype
Procedure: (§1) Protocol one: Two groups of hexb^−/− mice (n=10 per group); One group was administered 4-PBA (Scandinavian Formulas, Inc.) 4 mg/ml (0.4% w/v) in drinking water at 40 d of age. Body weights and vitals were monitored, and motor neuromuscular function were assessed every other day starting at 50 d of age until end point.
(§2) To assess the efficacy of chemical chaperone 4-PBA in reducing ER stress, hexb^−/− mice were administered 4-PBA in their drinking water at 40 d of age and underwent behavioral testing beginning at 7 weeks of age. Utilizing several behavioral tests such as wire hang, body weight, and righting response, measures of degeneration of cerebellar and motor neuromuscular functions were collected (FIG. 14). […] Lastly, an analysis of survivability was conducted using a Mantel-Cox test (FIG. 14 D). […] Overall, an increase of 16 days was noted, with 127 days as the median survival age for untreated hexb^−/− mice and 143 days for 4-PBA treated hexb^−/− mice.

[2] = system: cleaved caspase 7; assay: Immunofluorescence of cleaved caspase 7 and NeuN in spinal cord; settings: after 4-PBA treatment vs untreated
Excerpt: (§3) Protocol Two: Two groups of hexb^−/− mice at 40 d of age (n=4 per group) were set. […] Mice were perfused at 80 d, with formalin and processed for immunocytochemistry. Spine sections from treated and untreated mice were immunolabelled with multiple antibodies and evaluated.
(§4) Spinal cords from hexb^+/+ and hexb^−/− mice were harvested at 40, 60, 80, 100, and 120 d and embedded in paraffin as described above. Samples were rehydrated, first by washing slides with xylene then by washing them with a 1:1 solution of xylene and ethanol (EtOH) followed by washes in 100% EtOH, 95% EtOH, 70% EtOH, 70% EtOH/1% lithium carbonate solution, 70% EtOH, and finally, 50% EtOH. Next, antigen retrieval in a sodium citrate buffer (pH 6) was performed by microwaving the slides at 1 min intervals until boiling and then maintaining a boil for 5 minutes. The slides were then washed with tap water followed by a wash in glycine. […]
(§5) UPR activation was assessed through immunofluorescent staining of phosphorylated eukaryotic initiation factor 2 alpha (p-eIF2α) positive neurons and transcription factor YY1 in spinal cord sections from hexb^−/− mice that were treated or untreated with 4-PBA for (FIG. 15). […] Furthermore, the degree of apoptotic events occurring during disease pathogenesis with and without 4-PBA treatment was evaluated (FIG. 16). […]

[3] = system: ATF6; assay: ATF6 expression after 4-PBA treatment
[4] = system: hexb^−/− mice; assay: Righting reflex / righting response in hexb−/− mice
Procedure: as §1, §2

[5] = system: muscle fibers; assay: Cross-sectional area of muscle fibers from muscles surrounding the spinal cord; settings: 4-PBA treated hexb−/− mice, 80 d
Excerpt: as §3
Neuromuscular deficits are a highly prevalent consequence of Sandhoff disease. Therefore, cell body sectional area of the anterior horn neurons and the cross-sectional area of muscle fibers from the muscles surrounding the spinal cord of 80 d hexb^+/+ and hexb^−/− mice were evaluated (FIG. 19). Within hexb^+/+ mice, muscle fibres have an average area of ˜1000 um^2 while in contrast hexb^−/− mice show a 44% reduction in area with an average of −570 um^2. Such a drastic reduction early in disease pathology indicates mass muscle atrophy and neuronal loss has already occurred.

[6] = system: hexb^−/− mice; assay: Wire hang test in hexb−/− mice; settings: hexb−/− mice treated with 4-PBA vs untreated
Procedure: as §1, §2

[7] = system: ChAT-positive motor neurons (AHNs); assay: Immunofluorescence of ChAT and GFAP in anterior horn of spinal cord; settings: 4-PBA treated hexb−/− mice
Excerpt: as §3
(§6) Spinal cords from hexb^+/+ and hexb^−/− mice were harvested at 40, 60, 80, 100, and 120 d and embedded in paraffin as described above. Samples were rehydrated, first by washing slides with xylene then by washing them with a 1:1 solution of xylene and ethanol (EtOH) followed by washes in 100% EtOH, 95% EtOH, 70% EtOH, 70% EtOH/1% lithium carbonate solution, 70% EtOH, and finally, 50% EtOH. Next, antigen retrieval in a sodium citrate buffer (pH 6) was performed by microwaving the slides at 1 min intervals until boiling and then maintaining a boil for 5 minutes. The slides were then washed with tap water followed by a wash in glycine. Following, the slides were then incubated with bloxall blocking solution for 10 minutes, followed by a 5 minute wash with PBS. Slides were then blocked with 2.5% horse serum for 20 minutes. Samples were then double labelled with a combination of anti-GFAP (1:100, Sigma; G9269), anti-ChAT (1:200, SIGMA), anti-Calretinin (1:200, Proteintech) and anti-NeuN (1:100, novus biologicals; N.BP1-92693). Slides were incubated with antibodies overnight at 4° C. Samples were washed with 1×PBS+0.05% TWEEN20 for 3×5 minutes, prior to application of the secondary antibody. Following, slides were double labeled with appropriate Alexa Fluor secondaries (Invitrogen, goat anti-rabbit 488: A11037, goat anti-mouse 594: A11029) and then again washed with 1×PBS+0.05% TWEEN20. Finally, the slides were mounted with ProLong Diamond antifade mountant reagent with DAPI (Invitrogen: P36966). Samples were imaged using Ziess Axiovert 200 scope equipped with an HBO 100 mercury lamp.
One of the hall marks of motor neurons within the spinal cord is the enzyme choline acetyltransferase (ChAT). […]

[8] = system: phosphorylated eukaryotic initiation factor 2 alpha (p-eIF2α); assay: Immunofluorescence of p-eIF2α and YY1 in spinal cord of hexb−/− mice
Excerpt: as §3, §4, §5

[9] = system: Calretinin-positive interneurons; assay: Immunofluorescence of Calretinin in spinal cord sections; settings: 4-PBA treated hexb−/− mice
Excerpt: as §3
as §6, with “Samples were washed with 1×PBS+0.05% TWEEN20 for 3×5 minutes, prior to application of the secondary antibody. Following, slides were double labeled with appropriate Alexa Fluor secondaries (Invitrogen, goat anti-rabbit 488: A11037, goat anti-mouse 594: A11029) and then again washed with 1×PBS+0.05% TWEEN20. Finally, the slides were mounted with ProLong Diamond antifade mountant reagent with DAPI (Invitrogen: P36966). Samples were imaged using Ziess Axiovert 200 scope equipped with an HBO 100 mercury lamp.” left out

[10] = system: hexb^−/− mice; assay: Survival of Sandhoff (hexb−/−) mice given 4-PBA in drinking water, Mantel-Cox analysis
Procedure: Mouse work was conducted under the animal utilization protocol (AUP) in accordance with the Ontario Animals for Research Act specifications and the Animal Research Ethics Board (AREB) guidelines. The Sandhoff model mice (hexb^−/− on a C57BL/6 background) were generously donated by Dr. R. Gravel (University of Calgary, Canada) and have been previously characterized.
as §1, §2

In the case of `O=C(O)CCCc1ccccc1` [4-PBA, 4-phenylbutyric acid], the body mass [1] is reported as “restored hexb^−/− mice weights to wildtype levels”, the “number of cCas7 positive neurons in spinal cord” value [2] is reported as “significant reduction in the number of cCas7 positive neurons; also recorded: suppressed c-Cas7” and the ATF6 expression [3] is reported as “upregulation of ATF6”. The “righting reflex / righting response time” value ([4]; hexb−/− mice treated with 4-PBA vs untreated) was “significantly faster righting response; also recorded: significantly faster righting reflex”, the “delay in righting response time impairment” value ([4]; treated vs untreated hexb−/− mice (untreated impaired by 17 weeks of age)) was 2 week and the “muscle fiber cross-sectional area vs hexb+/+ (in words)” value [5] was “no significant difference; also recorded: maintained normal cross section area of muscle fibers”. The “muscle fiber cross-sectional area (average)” value ([5]; hexb+/+ ~1000, untreated hexb−/− ~570) was 900 um^2 and 850 um^2, the wire hang time [6] was “significant increase in wire hang time; also recorded: longer wire hang” and the C-boutons [7] was “more prevalent around AHNs motor neurons and throughout the anterior horn”. The “ChAT staining / ChAT-positive motor neurons in anterior horn” value [7] was “ChAT staining was normalized; also recorded: intense cytosolic ChAT staining within viable AHNs; also recorded: ChAT-positive motor neurons were maintained in anterior horn”, the “GFAP staining in anterior horn” value [7] was “intense GFAP staining” and the “nuclear localization of p-eIF2α” value ([8]; hexb−/− mice after 4-PBA treatment vs untreated) was “increase in the nuclear localization”. For the same compound, the “number of cytosolic p-eIF2α-positive neurons in spinal cord” value ([8]; hexb−/− mice treated with 4-PBA from 40 d, perfused at 80 d, vs untreated) was “significant reduction”, the “Calretinin-positive interneurons within the anterior horn region” value [9] was “very little Calretinin-positive interneurons” and the “survival / life span (in words)” value ([10]; hexb−/− mice with 4-PBA vs without, Mantel-Cox P<0.001) was “beneficial impact on lifespan; also recorded: significant improvement in motor neuromuscular function and life span; also recorded: lived significantly longer”. For the same compound, the median survival ([10]; hexb−/− mice, 4-PBA 4 mg/ml (0.4% w/v) in drinking water from 40 d of age, untreated 127 days) was 143 days and the “increase of median survival over untreated hexb−/− mice” value ([10]; hexb−/− mice, 4-PBA 4 mg/ml in drinking water from 40 d of age) was 16 days.
